Measurements from patent publication US20170136085A1, “TARGETED THERAPEUTICS” (SYNTA PHARMACEUTICALS CORP., priority 2014, published 2017).

Tested on: HER2
Assay: Degradation of HER2 in cells, Method 1 (SDS-PAGE / immunoblot)
Type: cell-based
Details: BT-474 cells, 0.5 μM, overnight in DMEM medium
Protocol: BT-474 cells are treated with 0.5 μM, 2 μM, or 5 μM of 17-AAG (a positive control) or 0.5 μM, 2 μM, or 5 μM of an Hsp90-targeting moiety or conjugate of the invention overnight in DMEM medium. After treatment, each cytoplasmic sample is prepared from 1×10^6 cells by incubation of cell lysis buffer (#9803, Cell Signaling Technology) on ice for 10 minutes. The resulting supernatant used as the cytosol fractions is dissolved with sample buffer for SDS-PAGE and run on a SDS-PAGE gel, blotted onto a nitrocellulose membrane by using semi-dry transfer. Non-specific binding to nitrocellulose is blocked with 5% skim milk in TBS with 0.5% Tween at room temperature for 1 hour, then probed with anti-HER2/ErB2 mAb (rabbit IgG, #2242, Cell Signaling) and anti-Tubulin (T9026, Sigma) as housekeeping control protein. HRP-conjugated goat anti-rabbit IgG (H+L) and HRP-conjugated horse anti-mouse IgG (H+L) are used as secondary Ab (#7074, #7076, Cell Signaling) and LumiGLO reagent, 20× Peroxide (#7003, Cell Signaling) is used for visualization. The Hsp90 client protein HER2 is degraded when cells are treated with Hsp90-targeting moieties or SDC-TRAPs of the invention.

## C=CCNC1=C2C[C@@H](C)C[C@H](OC)[C@H](O)[C@@H](C)/C=C(\C)[C@H](OC(N)=O)[C@@H](OC)/C=C\C=C(/C)C(=O)NC(=CC1=O)C2=O [17-AAG]
  degradation of HER2: partial degradation
